Reference: PMC8225628, “Bispecific repurposed medicines targeting the viral and immunological arms of COVID-19” (Scientific Reports, 2021)
Like-named read-outs stand apart in the source and are kept apart here.

Columns and labels:
SARS-CoV-2 M^pro = SARS-CoV-2 M^pro (Severe acute respiratory syndrome coronavirus 2, UniProt P0DTD1); test: biochemical; settings: for inhibition at 10 µM: read-out: M^pro % inhibition at 10 µM
SARS-CoV-2 PL^pro = SARS-CoV-2 PL^pro (Severe acute respiratory syndrome coronavirus 2, UniProt P0DTD1); test: biochemical; settings: for inhibition at 10 µM: read-out: PL^pro % inhibition at 10 µM
SARS-CoV-2 = test: Antiviral assay, inhibition of SARS-CoV-2 cytopathic effect in HUH7_mCherry cells; settings: HUH7 cells
HUH7 cells = settings: 4 days
M^pro = M^pro (Severe acute respiratory syndrome coronavirus 2, UniProt P0DTD1); test: M^pro SPR assay; type: binding
PL^pro = tested on: PL^pro; set-up: method as in PMID 32726803; settings: read-out: Biochemical IC50; cited from earlier work
[1] = set-up: method as in PMID 32726803; settings: cited from earlier work
[2] = set-up: method as in PMID 32726803; settings: read-out: FFU IC50; cited from earlier work
[3] = set-up: method as in PMID 32726803; settings: cited from earlier work; remark: listed apart in the source
[4] = ReFRAME hits, >5e-6 = not potent enough to determine an IC50, read-out: M^pro IC50
[5] = ReFRAME hits, >5e-6 = not potent enough to determine an IC50, read-out: PL^pro IC50
[6] = SARS-CoV-2 PL^pro, range in brackets, read-out: IC50 (µM) (range)

Structure (SMILES): O=C(O)c1cccc(C[C@@H]2COc3ccc(OCc4nc5cc(F)ccc5s4)cc3[C@@H]2O)c1 [(+)-CP-85958]
- M^pro % inhibition at 10 µM (SARS-CoV-2 M^pro; ReFRAME hits): 70%
- IC50 (SARS-CoV-2 M^pro; [4]): 2 µM
- PL^pro % inhibition at 10 µM (SARS-CoV-2 PL^pro; ReFRAME hits, 10 µM): 17%
- IC50 (SARS-CoV-2 PL^pro; [5]): > 5 µM

Structure (SMILES): COc1ccc(-c2ccc(OCc3cc(C(=O)[N-]S(=O)(=O)c4ccccc4C)oc3C)cc2)nc1.[Na+] [BGC-20-1531]
- M^pro % inhibition at 10 µM (SARS-CoV-2 M^pro; ReFRAME hits): 58%
- IC50 (SARS-CoV-2 M^pro; [4]): > 5 µM
- PL^pro % inhibition at 10 µM (SARS-CoV-2 PL^pro; ReFRAME hits, 10 µM): 24%
- IC50 (SARS-CoV-2 PL^pro; [5]): > 5 µM

Structure (SMILES): CC(C)(C)NC(=O)N[C@H](C(=O)N1C[C@H]2[C@@H]([C@H]1C(=O)NC(CC1CCC1)C(=O)C(N)=O)C2(C)C)C(C)(C)C (stereo partly shown) [Boceprevir, reference compound]
- inhibition at 10 µM (SARS-CoV-2 M^pro; ReFRAME hits): 62%
- inhibition at 10 µM (SARS-CoV-2 PL^pro; ReFRAME hits, 10 µM): -2%

Structure (SMILES): O=C(NCc1ccccn1)C(=O)C(Cc1ccccc1)NC(=O)C1CCC(=O)N1Cc1ccccc1 (stereo not shown) [Compound 1]
- Antiviral effect (SARS-CoV-2; at 100 µM): 75%
- Concentration up to which non-cytotoxic (HUH7 cells; HUH7 cells): up to 100 µM

Structure (SMILES): O=C(NC1CC1)C(=O)C(Cc1ccccc1)NC(=O)C1CCC(=O)N1Cc1ccccc1 (stereo not shown) [Compound 2, ABT-957, reference compound]
- IC50 (SARS-CoV-2 M^pro; [4]): > 5 µM
- IC50 (SARS-CoV-2 M^pro; read-out: IC50 against M^pro): > 100 µM
- inhibition at 10 µM (SARS-CoV-2 M^pro; ReFRAME hits): 73%
- inhibition at 10 µM (SARS-CoV-2 PL^pro; ReFRAME hits, 10 µM): 17%
- IC50 (SARS-CoV-2 PL^pro; read-out: PL^pro IC50): > 5 µM

Structure (SMILES): CCOC(=O)C[C@H](NC(=O)[C@H](C)NC(=O)[C@@H](NC(=O)OCc1ccccc1)C(C)C)C(=O)COC(=O)c1c(Cl)cccc1Cl [Compound 4, Ethyl (5S,8S,11S)-11-(2-((2,6-dichlorobenzoyl)oxy)acetyl)-5-isopropyl-8-methyl-3,6,9-trioxo-1-phenyl-2-oxa-4,7,10-triazatridecan-13-oate, reference compound]
- Antiviral effect (SARS-CoV-2; at 10 µM, dose refreshed daily): 50%
- Binding to M^pro in SPR (in words) (M^pro): confirmed to bind
- Binding to M^pro in SPR (in words) (M^pro; in the presence of slow off-rate inhibitor N3): no binding observed
- Concentration up to which non-cytotoxic (HUH7 cells; human): ≤ 10 µM
- IC50 (SARS-CoV-2 M^pro; 30 nM is the biochemical limit of the assay, read-out: IC50 against M^pro): 0.03 µM
- inhibition at 10 µM (SARS-CoV-2 M^pro; ReFRAME hits): 95%
- inhibition at 10 µM (SARS-CoV-2 PL^pro; ReFRAME hits, 10 µM): 19%
- IC50 (SARS-CoV-2 PL^pro; read-out: PL^pro IC50): > 5 µM

Structure (SMILES): CCOC1OC(=O)CC1NC(=O)C1CCCN1C(=O)C(NC(=O)c1ccc(N)c(Cl)c1)C(C)(C)C (stereo not shown) [Compound 7, belnecasan, reference compound]
- Inhibition of M^pro (in words) (SARS-CoV-2 M^pro): did not substantially inhibit

Structure (SMILES): CCOc1cc2ncc(C#N)c(Nc3ccc(F)c(Cl)c3)c2cc1NC(=O)/C=C/CN(C)C [Compound 10, Pelitinib, reference compound]
- Inhibition of M^pro (in words) (SARS-CoV-2 M^pro): not determined to display significant biochemical inhibition
- IC50 (SARS-CoV-2 PL^pro; [6]): > 100 µM

Structure (SMILES): CN(C)C/C=C/C(=O)Nc1cc2c(Nc3ccc(F)c(Cl)c3)ncnc2cc1O[C@H]1CCOC1 [Compound 11, Afatinib, reference compound]
- IC50 (SARS-CoV-2 PL^pro; [6]): 12 µM

Structure (SMILES): COc1cc2ncnc(Nc3ccc(F)c(Cl)c3)c2cc1NC(=O)/C=C/CN1CCCCC1 [Compound 12, Dacomitinib, reference compound]
- IC50 (SARS-CoV-2 PL^pro; [6]): 4 µM

Structure (SMILES): Cc1ccc(N)cc1C(=O)N[C@H](C)c1cccc2ccccc12 [GRL-0617]
- Cytopathic-effect potency [1]: 30 µM
- IC50 [2]: > 100 µM
- Viral RNA detection potency [3]: > 50 µM

Structure (SMILES): CCC[C@@H](NC(=O)N1C(=O)C(CC)(CC)[C@@H]1Oc1ccc(CC(=O)O)cc1)c1ccc(C)cc1 [L 680833]
- M^pro % inhibition at 10 µM (SARS-CoV-2 M^pro; ReFRAME hits): 36%
- IC50 (SARS-CoV-2 M^pro; [4]): > 5 µM
- PL^pro % inhibition at 10 µM (SARS-CoV-2 PL^pro; ReFRAME hits, 10 µM): 11%
- IC50 (SARS-CoV-2 PL^pro; [5]): > 5 µM

Structure (SMILES): COc1ccc(/C=C/CCCCOc2ccc(C(=O)c3cccc(C(=O)O)c3)cc2CCC(=O)O)cc1 [LY 223982]
- M^pro % inhibition at 10 µM (SARS-CoV-2 M^pro; ReFRAME hits): 43%
- IC50 (SARS-CoV-2 M^pro; [4]): > 5 µM
- PL^pro % inhibition at 10 µM (SARS-CoV-2 PL^pro; ReFRAME hits, 10 µM): 22%
- IC50 (SARS-CoV-2 PL^pro; [5]): > 5 µM

Structure (SMILES): Nc1nc(N)nc(Nc2ccc([As]3SC(C(=O)O)C(C(=O)O)S3)cc2)n1 (stereo not shown) [MELARSONYL]
- PL^pro % inhibition at 10 µM (SARS-CoV-2 PL^pro): 11%
- IC50 (SARS-CoV-2 PL^pro; read-out: PL^pro IC50): > 5 µM

Structure (SMILES): Cl.Cl.Cl.Cl.N=C(N)NCCCCC(=O)Nc1cc(C(F)(F)F)cc(NC(=O)c2cc(C(=O)Nc3cc(C(F)(F)F)cc(NC(=O)CCCCNC(=N)N)c3O[C@@H]3CCNC3)ncn2)c1O[C@@H]1CCNC1 [PMX-30063]
- M^pro % inhibition at 10 µM (SARS-CoV-2 M^pro; ReFRAME hits): 11%
- IC50 (SARS-CoV-2 M^pro; [4]): > 5 µM
- PL^pro % inhibition at 10 µM (SARS-CoV-2 PL^pro; ReFRAME hits, 10 µM): 30%
- IC50 (SARS-CoV-2 PL^pro; [5]): 2 µM

Structure (SMILES): CN1CCCN=C1/C=C/c1cccs1 [Pyrantel pamoate, reference compound]
- IC50 (SARS-CoV-2 PL^pro): > 5 µM
